Here are results for 18 compounds from BindingDB's records for doi:10.7270/Q2DF6PMF (Nmmlsc, 2007).

The assay addresses T1, N-formyl peptide receptor 2 (Homo sapiens, UniProt P25090).
T1 sequence (P25090 whole entry): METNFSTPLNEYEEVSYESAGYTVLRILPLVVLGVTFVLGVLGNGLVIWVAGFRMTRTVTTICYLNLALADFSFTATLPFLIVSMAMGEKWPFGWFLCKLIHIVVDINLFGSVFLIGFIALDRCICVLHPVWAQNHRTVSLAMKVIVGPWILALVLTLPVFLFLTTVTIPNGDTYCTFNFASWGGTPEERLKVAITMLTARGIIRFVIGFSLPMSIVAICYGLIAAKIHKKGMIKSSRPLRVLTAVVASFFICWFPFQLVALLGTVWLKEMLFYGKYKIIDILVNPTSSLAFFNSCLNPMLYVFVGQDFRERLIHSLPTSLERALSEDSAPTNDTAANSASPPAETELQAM
Put plainly: concentration-dependent FPRL1 ligand displacement – cell-based, FPR counter-screen, fluorescent ligand, dose response (AID 520).
`COc1ccc(C(=O)C2C(=O)C(=O)N(c3nc(C)c(C)s3)C2c2ccco2)cc1` (stereo not drawn) [(4Z)-1-(4,5-dimethyl-1,3-thiazol-2-yl)-5-(furan-2-yl)-4-[(4-methoxyphenyl)-oxidanyl-methylidene]pyrrolidine-2,3-dione] returned an IC50 greater than 66.7 µM and a Ki greater than 40.3 µM. The matching figures for `O=C1C(=O)N(CCc2ccccc2)C(c2cccnc2)C1C(=O)c1ccco1` (stereo not drawn) [3-(furan-2-carbonyl)-4-hydroxy-1-(2-phenylethyl)-2-pyridin-3-yl-2H-pyrrol-5-one]: greater than 66.7 µM and greater than 40.3 µM.

As to `CCOC(=O)C1CCN(Cc2ccc(C(=O)OC)cc2)CC1` [1-(4-carbomethoxybenzyl)isonipecotic acid ethyl ester], the IC50 is greater than 66.7 µM. Regarding `Cc1ccc(C)c(-n2c(CNC(=O)c3ccco3)nnc2SCC(=O)N2CCc3ccccc32)c1` [N-[[5-[2-(2,3-dihydroindol-1-yl)-2-oxoethyl]sulfanyl-4-(2,5-dimethylphenyl)-1,2,4-triazol-3-yl]methyl]furan-2-carboxamide], the IC50 is greater than 66.7 µM. Take `Cc1nc(C)c(C(=O)C2C(=O)C(=O)N(CCCn3ccnc3)C2c2ccc(Cl)cc2)s1` (stereo not drawn) [2-(4-chlorophenyl)-3-(2,4-dimethyl-1,3-thiazole-5-carbonyl)-4-hydroxy-1-(3-imidazol-1-ylpropyl)-2H-pyrrol-5-one]: the half-inhibitory concentration (IC50) is greater than 66.7 µM and the inhibitory constant (Ki) is greater than 40.3 µM. `CCCS(=O)(=O)N1CCCC(C(=O)N2CCC(Cc3ccccc3)CC2)C1` (stereo not drawn) [(4-benzylpiperidin-1-yl)-(1-propylsulfonylpiperidin-3-yl)methanone] yielded an IC50 greater than 66.7 µM. In turn, `Cc1c(C)c2cc(Cl)c(O)c(CN3CCCCC3)c2oc1=O` [6-chloranyl-3,4-dimethyl-7-oxidanyl-8-(piperidin-1-ylmethyl)chromen-2-one] yielded an IC50 greater than 66.7 µM. `COC(=O)C1=[N+]([O-])OC(C(=O)OC)C1c1c[nH]c2ccccc12` (stereo not drawn) [MLS000090094] showed an IC50 greater than 66.7 µM. The same measure, in the same setting: the value for `CCOC(=O)CCn1nc(-c2ccc(Cl)cc2)cc1N` [3-[5-amino-3-(4-chlorophenyl)-1-pyrazolyl]propanoic acid ethyl ester] was greater than 66.7 µM; that for `CCCCCNC(=O)c1ccc2c(=O)[nH]c3c(C(=O)NCC4CCCO4)sc(=S)n3c2c1` (stereo not drawn) [5-oxo-N3-(2-oxolanylmethyl)-N8-pentyl-1-sulfanylidene-4H-thiazolo[3,4-a]quinazoline-3,8-dicarboxamide] was greater than 66.7 µM. On to `Cc1cc2oc(C(=O)NC3CCS(=O)(=O)C3)c(C)c2cc1C` (stereo not drawn) [MLS000063255], for which the IC50 is greater than 66.7 µM. `C=C(c1ccc(Br)cc1)c1sc(N2CCCC2)nc1O` [(5Z)-5-[1-(4-bromophenyl)ethylidene]-2-(1-pyrrolidinyl)-4-thiazolone] registered an IC50 greater than 66.7 µM and a Ki greater than 40.3 µM. With `O=S(=O)(c1c[nH]cn1)N1CCc2ccccc21` [SMR000026956], the IC50 was greater than 66.7 µM.

For the compound `CCOC(=O)c1c(NC(=O)c2cc(C3CC3)on2)sc2c1CCCC2` [2-[(5-cyclopropylisoxazole-3-carbonyl)amino]-4,5,6,7-tetrahydrobenzothiophene-3-carboxylic acid ethyl ester], the concentration for half-maximal inhibition (IC50) was greater than 66.7 µM.

Take `COc1ccccc1NC(=O)CSc1nnc(Cn2nnc(-c3ccccc3)n2)n1-c1ccccc1` [MLS000032410]: the IC50 is greater than 66.7 µM. In the case of `COc1ccc(C2C(C(=O)c3ccco3)C(=O)C(=O)N2Cc2cccnc2)cc1OC` (stereo not drawn) [2-(3,4-dimethoxyphenyl)-3-(furan-2-carbonyl)-4-hydroxy-1-(pyridin-3-ylmethyl)-2H-pyrrol-5-one], the IC50 was greater than 66.7 µM and the Ki was greater than 40.3 µM. In the case of `Cc1cccc(Nc2ccccc2C(=O)NCc2ccco2)c1C` [2-(2,3-dimethylanilino)-N-(2-furanylmethyl)benzamide], the IC50 was greater than 66.7 µM.

In turn, `CSc1ccccc1NS(=O)(=O)c1ccccc1` [MLS000064343] showed an IC50 greater than 66.7 µM.
